Test results reported in ChEMBL document CHEMBL5038633 (J Med Chem, 2022).
Where a SMILES comes first, the peptide text is derived from it. Bridges are numbered along the chain shown (N, C = ends). [ ]: non-standard residue; d: D form. Abu(4,4,4-F3) = N[C@@H](CC(F)(F)F)C(=O)O; Phe(4-Cl) = N[C@@H](Cc1ccc(Cl)cc1)C(=O)O; Cha = N[C@@H](CC1CCCCC1)C(=O)O; Chg = N[C@H](C(=O)O)C1CCCCC1

Tests used:
[1] = target: Sodium channel protein type 9 subunit alpha (Homo sapiens, UniProt Q15858); test: Inhibition of human Nav1.7 stably expressed in cells with train pulses to -20 mV at 0.1 Hz and holding potential of -95 mV by Qube-automated patch clamp assay; assay type: cell-based
[2] = target: Sodium channel protein type 4 subunit alpha (Homo sapiens, UniProt P35499); test: Inhibition of human Nav1.4 stably expressed in cells with train pulses to -20 mV at 0.1 Hz and holding potential of -95 mV by whole-cell Qube-automated patch clamp assay; assay type: cell-based
[3] = target: Sodium channel protein type 8 subunit alpha (Homo sapiens, UniProt Q9UQD0); test: Inhibition of human Nav1.6 stably expressed in cells with train pulses to -20 mV at 0.1 Hz and holding potential of -85 mV by whole-cell Qube-automated patch clamp assay; assay type: cell-based
[4] = Inhibition of mast cell degranulation in Wistar Han rat peritoneal lavage mast cells assessed as inhibition histamine release by measuring lowest concentration at which histamine release observed measured after 30 mins; assay type: functional; conditions: 0.5 h

Chain of Sodium channel protein type 4 subunit alpha (P35499 whole entry): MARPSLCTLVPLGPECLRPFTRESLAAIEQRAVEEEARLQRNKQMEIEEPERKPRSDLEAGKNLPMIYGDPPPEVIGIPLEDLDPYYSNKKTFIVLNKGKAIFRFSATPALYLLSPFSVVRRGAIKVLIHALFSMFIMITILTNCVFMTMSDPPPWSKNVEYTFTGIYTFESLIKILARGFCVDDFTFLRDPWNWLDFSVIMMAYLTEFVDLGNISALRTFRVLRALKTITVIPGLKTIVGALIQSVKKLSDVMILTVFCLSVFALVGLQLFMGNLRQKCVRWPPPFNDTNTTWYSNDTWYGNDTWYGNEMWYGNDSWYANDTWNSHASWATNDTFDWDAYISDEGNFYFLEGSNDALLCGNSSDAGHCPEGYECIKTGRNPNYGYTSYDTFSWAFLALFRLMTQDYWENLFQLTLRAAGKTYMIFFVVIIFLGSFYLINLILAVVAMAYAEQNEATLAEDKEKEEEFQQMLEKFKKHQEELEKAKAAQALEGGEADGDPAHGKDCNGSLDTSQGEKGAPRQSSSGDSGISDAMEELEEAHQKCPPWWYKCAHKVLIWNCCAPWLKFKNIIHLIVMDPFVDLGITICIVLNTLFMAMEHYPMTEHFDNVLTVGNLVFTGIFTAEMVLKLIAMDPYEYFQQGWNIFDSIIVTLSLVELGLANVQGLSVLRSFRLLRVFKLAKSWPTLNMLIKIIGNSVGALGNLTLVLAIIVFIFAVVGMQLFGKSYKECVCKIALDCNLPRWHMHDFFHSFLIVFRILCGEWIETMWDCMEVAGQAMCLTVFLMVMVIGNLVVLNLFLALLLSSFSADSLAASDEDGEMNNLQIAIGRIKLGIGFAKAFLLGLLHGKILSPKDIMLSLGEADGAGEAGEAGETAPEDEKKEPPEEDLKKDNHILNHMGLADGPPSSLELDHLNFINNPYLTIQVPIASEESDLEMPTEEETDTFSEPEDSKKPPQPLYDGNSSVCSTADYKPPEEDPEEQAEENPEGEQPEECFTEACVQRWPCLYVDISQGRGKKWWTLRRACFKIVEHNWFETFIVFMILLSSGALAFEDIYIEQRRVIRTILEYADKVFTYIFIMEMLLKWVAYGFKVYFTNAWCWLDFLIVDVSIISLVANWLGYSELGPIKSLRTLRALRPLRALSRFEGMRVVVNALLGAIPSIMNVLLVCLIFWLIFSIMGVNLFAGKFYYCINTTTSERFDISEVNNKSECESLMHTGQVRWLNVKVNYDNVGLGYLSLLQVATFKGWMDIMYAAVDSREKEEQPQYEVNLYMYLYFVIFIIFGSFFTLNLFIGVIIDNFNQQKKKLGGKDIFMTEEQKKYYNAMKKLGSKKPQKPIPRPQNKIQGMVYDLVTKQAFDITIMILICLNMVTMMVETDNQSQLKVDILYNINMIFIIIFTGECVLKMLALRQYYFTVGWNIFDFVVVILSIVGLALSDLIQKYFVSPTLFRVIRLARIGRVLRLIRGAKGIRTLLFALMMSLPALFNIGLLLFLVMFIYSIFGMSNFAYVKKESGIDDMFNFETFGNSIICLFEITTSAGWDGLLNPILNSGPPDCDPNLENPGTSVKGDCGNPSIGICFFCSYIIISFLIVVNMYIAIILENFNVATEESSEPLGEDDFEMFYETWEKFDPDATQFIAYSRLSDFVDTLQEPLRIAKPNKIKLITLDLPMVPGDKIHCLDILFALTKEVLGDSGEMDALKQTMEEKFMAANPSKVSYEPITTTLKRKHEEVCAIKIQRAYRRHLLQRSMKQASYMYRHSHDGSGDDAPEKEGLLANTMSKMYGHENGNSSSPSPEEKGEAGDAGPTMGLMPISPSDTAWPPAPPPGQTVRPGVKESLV
Chain of Sodium channel protein type 8 subunit alpha (Q9UQD0 whole entry): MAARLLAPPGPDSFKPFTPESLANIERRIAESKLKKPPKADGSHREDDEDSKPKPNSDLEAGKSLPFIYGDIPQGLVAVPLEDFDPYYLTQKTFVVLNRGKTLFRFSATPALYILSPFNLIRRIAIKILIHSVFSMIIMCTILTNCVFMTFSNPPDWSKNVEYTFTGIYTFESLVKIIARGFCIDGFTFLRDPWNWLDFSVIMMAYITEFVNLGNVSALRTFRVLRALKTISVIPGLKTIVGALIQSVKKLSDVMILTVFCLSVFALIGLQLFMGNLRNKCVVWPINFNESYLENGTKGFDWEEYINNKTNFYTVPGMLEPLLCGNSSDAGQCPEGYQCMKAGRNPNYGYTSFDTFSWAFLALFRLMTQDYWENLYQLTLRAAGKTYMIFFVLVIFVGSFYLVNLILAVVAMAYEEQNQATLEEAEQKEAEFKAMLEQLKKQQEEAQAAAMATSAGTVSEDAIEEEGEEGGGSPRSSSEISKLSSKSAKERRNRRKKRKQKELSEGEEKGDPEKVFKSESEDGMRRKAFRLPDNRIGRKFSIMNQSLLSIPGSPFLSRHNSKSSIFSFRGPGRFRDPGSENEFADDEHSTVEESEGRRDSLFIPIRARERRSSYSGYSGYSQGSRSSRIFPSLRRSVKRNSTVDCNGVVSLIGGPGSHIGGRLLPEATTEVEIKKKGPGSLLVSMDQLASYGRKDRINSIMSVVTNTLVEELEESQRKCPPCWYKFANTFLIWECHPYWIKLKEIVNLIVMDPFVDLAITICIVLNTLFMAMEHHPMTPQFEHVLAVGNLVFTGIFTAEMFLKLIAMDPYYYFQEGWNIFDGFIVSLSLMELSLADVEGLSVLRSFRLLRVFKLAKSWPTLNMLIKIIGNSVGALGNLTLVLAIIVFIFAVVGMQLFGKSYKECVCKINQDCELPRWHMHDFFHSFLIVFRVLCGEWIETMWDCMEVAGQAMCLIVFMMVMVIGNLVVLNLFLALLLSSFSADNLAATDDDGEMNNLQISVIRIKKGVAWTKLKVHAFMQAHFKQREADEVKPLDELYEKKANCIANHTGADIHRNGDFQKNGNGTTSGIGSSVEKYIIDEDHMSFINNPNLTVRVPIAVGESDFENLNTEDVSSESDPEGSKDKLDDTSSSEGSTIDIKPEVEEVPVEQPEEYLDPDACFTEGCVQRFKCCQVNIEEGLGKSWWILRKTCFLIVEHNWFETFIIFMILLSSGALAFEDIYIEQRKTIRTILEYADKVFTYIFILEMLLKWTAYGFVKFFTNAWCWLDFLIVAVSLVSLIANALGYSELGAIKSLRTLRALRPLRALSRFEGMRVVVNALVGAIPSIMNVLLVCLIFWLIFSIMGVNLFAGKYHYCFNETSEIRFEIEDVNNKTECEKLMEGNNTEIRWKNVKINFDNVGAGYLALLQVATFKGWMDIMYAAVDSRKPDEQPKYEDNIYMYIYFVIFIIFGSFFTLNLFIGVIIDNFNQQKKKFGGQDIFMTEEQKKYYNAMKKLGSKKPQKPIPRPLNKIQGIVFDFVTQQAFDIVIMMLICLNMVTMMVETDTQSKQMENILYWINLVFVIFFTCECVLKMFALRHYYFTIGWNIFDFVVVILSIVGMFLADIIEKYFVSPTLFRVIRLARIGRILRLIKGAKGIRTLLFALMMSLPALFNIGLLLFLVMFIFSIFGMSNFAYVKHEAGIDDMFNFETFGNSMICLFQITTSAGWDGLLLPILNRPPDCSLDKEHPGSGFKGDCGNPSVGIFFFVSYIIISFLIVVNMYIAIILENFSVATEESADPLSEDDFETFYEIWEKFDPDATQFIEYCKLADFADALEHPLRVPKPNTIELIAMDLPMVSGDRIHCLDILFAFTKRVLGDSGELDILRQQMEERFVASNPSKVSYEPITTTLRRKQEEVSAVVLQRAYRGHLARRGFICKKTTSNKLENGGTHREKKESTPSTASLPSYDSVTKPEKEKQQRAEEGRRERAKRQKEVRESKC

Row | Compound | IC50 [1] | IC50 [2] | IC50 [3] | LED [4]
1 | CC(=O)N[C@H]1CSSC[C@@H]2NC(=O)[C@@H]3CSSC[C@@H](C(=O)N[C@@H](CCCCN)C(=O)N[C@@H](CCCCN)C(=O)N[C@@H](CCCCN)C(=O)N[C@@H](CC(C)C)C(=O)N[C@@H](Cc4c[nH]c5ccccc45)C(N)=O)NC(=O)[C@H](Cc4c[nH]c5ccccc45)NC(=O)[C@H](CC(C)C)NC(=O)[C@H](CCCNC(=N)N)NC(=O)[C@H](CSSC[C@H](NC(=O)[C@@H]4CCCN4C(=O)[C@H](CCCCN)NC(=O)[C@H](CC(C)C)NC(=O)[C@H](Cc4ccccc4)NC(=O)[C@H](CCC(=O)O)NC(=O)[C@H](CCC(N)=O)NC1=O)C(=O)N[C@@H](CC(=O)O)C(=O)N[C@@H](CO)C(=O)N[C@@H](CCC(=O)O)C(=O)N[C@@H](CCCNC(=N)N)C(=O)N[C@@H](CCCCN)C(=O)N3)NC(=O)[C@H](CCC(=O)O)NC(=O)[C@H](CC(C)C)NC(=O)CNC(=O)[C@H](CCC(=O)O)NC2=O (Ac-CQEFLKPCDSERKCCEGLECRLWCKKKLW-NH2; disulfide 1-15, 8-20, 14-24) | 0.091 µM | > 17 µM | > 17 µM | 3.3 µM
2 | CC(=O)N[C@H]1CSSC[C@@H]2NC(=O)[C@@H]3CSSC[C@@H](C(=O)N[C@@H](CCCCN)C(=O)N[C@@H](CCCCN)C(=O)N[C@@H](CCCCN)C(=O)N[C@@H](CC(C)C)C(=O)N[C@@H](Cc4c[nH]c5ccccc45)C(N)=O)NC(=O)[C@H](Cc4c[nH]c5ccccc45)NC(=O)[C@H](CC(C)C)NC(=O)[C@H](C(C)C)NC(=O)[C@H](CSSC[C@H](NC(=O)[C@@H]4CCCN4C(=O)[C@H](CCCCN)NC(=O)[C@H](CC(C)C)NC(=O)[C@H](Cc4ccccc4)NC(=O)[C@H](CCC(=O)O)NC(=O)[C@H](CCC(N)=O)NC1=O)C(=O)N[C@@H](CC(=O)O)C(=O)N[C@@H](CCCCN)C(=O)N[C@@H](CCC(=O)O)C(=O)N[C@@H](CCCNC(=N)N)C(=O)N[C@@H](CCCCN)C(=O)N3)NC(=O)[C@H](CCC(=O)O)NC(=O)[C@H](CC(C)C)NC(=O)CNC(=O)[C@H](CCC(=O)O)NC2=O (Ac-CQEFLKPCDKERKCCEGLECVLWCKKKLW-NH2; disulfide 1-15, 8-20, 14-24) | 0.253 µM | > 17 µM | > 17 µM | 10 µM
3 | CC(=O)N[C@H]1CSSC[C@@H]2NC(=O)[C@@H]3CSSC[C@@H](C(=O)N[C@@H](CCCCN)C(=O)N[C@@H](CCCCN)C(=O)N[C@@H](CCCCN)C(=O)N[C@@H](CC(C)C)C(=O)N[C@@H](Cc4c[nH]c5ccccc45)C(N)=O)NC(=O)[C@H](Cc4c[nH]c5ccccc45)NC(=O)[C@H](CC(C)C)NC(=O)[C@H](CCCCN)NC(=O)[C@H](CSSC[C@H](NC(=O)[C@@H]4CCCN4C(=O)[C@H](C)NC(=O)[C@H](CC(C)C)NC(=O)[C@H](Cc4ccccc4)NC(=O)[C@H](CCCCN)NC(=O)[C@H](CCC(N)=O)NC1=O)C(=O)N[C@@H](CC(=O)O)C(=O)N[C@@H](CCC(=O)O)C(=O)N[C@@H](CCC(=O)O)C(=O)N[C@@H](CCCNC(=N)N)C(=O)N[C@@H](CCCCN)C(=O)N3)NC(=O)[C@H](C(C)C)NC(=O)[C@H](CC(C)C)NC(=O)CNC(=O)[C@H](CCC(=O)O)NC2=O (Ac-CQKFLAPCDEERKCCEGLVCKLWCKKKLW-NH2; disulfide 1-15, 8-20, 14-24) | 0.074 µM | 15.2 µM | 10.3 µM | 3.3 µM
4 | CC(=O)N[C@H]1CSSC[C@@H]2NC(=O)[C@@H]3CSSC[C@@H](C(=O)N[C@@H](CCCCN)C(=O)N[C@@H](CCCCN)C(=O)N[C@@H](CCCCN)C(=O)N[C@@H](CC(C)C)C(=O)N[C@@H](Cc4c[nH]c5ccccc45)C(N)=O)NC(=O)[C@H](Cc4c[nH]c5ccccc45)NC(=O)[C@H](CC(C)C)NC(=O)[C@H](CCCNC(=N)N)NC(=O)[C@H](CSSC[C@H](NC(=O)[C@@H]4CCCN4C(=O)[C@H](CCC(=O)O)NC(=O)[C@H](CC(C)C)NC(=O)[C@H](Cc4ccccc4)NC(=O)[C@H](CCCCN)NC(=O)[C@H](CCC(N)=O)NC1=O)C(=O)N[C@@H](CC(=O)O)C(=O)N[C@@H](CO)C(=O)N[C@@H](CCC(=O)O)C(=O)N[C@@H](CCCNC(=N)N)C(=O)N[C@@H](CCCCN)C(=O)N3)NC(=O)[C@H](CCC(=O)O)NC(=O)[C@H](CC(C)C)NC(=O)CNC(=O)[C@H](CCC(=O)O)NC2=O (Ac-CQKFLEPCDSERKCCEGLECRLWCKKKLW-NH2; disulfide 1-15, 8-20, 14-24) | 0.097 µM | > 17 µM | > 17 µM | 10 µM
5 | CC(=O)N[C@H]1CSSC[C@@H]2NC(=O)[C@@H]3CSSC[C@@H](C(=O)N[C@@H](CCCCN)C(=O)N[C@@H](CCCCN)C(=O)N[C@@H](CCCCN)C(=O)N[C@@H](CC(C)C)C(=O)N[C@@H](Cc4c[nH]c5ccccc45)C(N)=O)NC(=O)[C@H](Cc4c[nH]c5ccccc45)NC(=O)[C@H](CC(C)C)NC(=O)[C@H](CCCCN)NC(=O)[C@H](CSSC[C@H](NC(=O)[C@@H]4CCCN4C(=O)[C@H](CCCCN)NC(=O)[C@H](CC(C)C)NC(=O)[C@H](Cc4ccccc4)NC(=O)[C@H](CCC(=O)O)NC(=O)[C@H](CCC(N)=O)NC1=O)C(=O)N[C@@H](CC(=O)O)C(=O)N[C@@H](CCC(=O)O)C(=O)N[C@@H](CCC(=O)O)C(=O)N[C@@H](CCCNC(=N)N)C(=O)N[C@@H](CCCCN)C(=O)N3)NC(=O)[C@H](C(C)C)NC(=O)[C@H](CC(C)C)NC(=O)CNC(=O)[C@H](CCC(=O)O)NC2=O (Ac-CQEFLKPCDEERKCCEGLVCKLWCKKKLW-NH2; disulfide 1-15, 8-20, 14-24) | 0.225 µM | > 17 µM | > 17 µM | 10 µM
6 | CC(=O)N[C@H]1CSSC[C@@H]2NC(=O)[C@@H]3CSSC[C@@H](C(=O)N[C@@H](CCCCN)C(=O)N[C@@H](CCCCN)C(=O)N[C@@H](CCCCN)C(=O)N[C@@H](CC(C)C)C(=O)N[C@@H](Cc4c[nH]c5ccccc45)C(N)=O)NC(=O)[C@H](Cc4c[nH]c5ccccc45)NC(=O)[C@H](CC(C)C)NC(=O)[C@H](CCCNC(=N)N)NC(=O)[C@H](CSSC[C@H](NC(=O)[C@@H]4CCCN4C(=O)[C@H](CCC(=O)O)NC(=O)[C@H](CC(C)C)NC(=O)[C@H](Cc4ccccc4)NC(=O)[C@H](CCCCN)NC(=O)[C@H](CCC(N)=O)NC1=O)C(=O)N[C@@H](CC(=O)O)C(=O)N[C@@H](CO)C(=O)N[C@@H](CCC(=O)O)C(=O)N[C@@H](CCCNC(=N)N)C(=O)N[C@@H](CCCCN)C(=O)N3)NC(=O)[C@H](C(C)C)NC(=O)[C@H](CC(C)C)NC(=O)CNC(=O)[C@H](CCC(=O)O)NC2=O (Ac-CQKFLEPCDSERKCCEGLVCRLWCKKKLW-NH2; disulfide 1-15, 8-20, 14-24) | 0.043 µM | 4.77 µM | 3.94 µM | 3.3 µM
7 | CC(=O)N[C@H]1CSSC[C@@H]2NC(=O)[C@@H]3CSSC[C@@H](C(=O)N[C@@H](CCCCN)C(=O)N[C@@H](CCCCN)C(=O)N[C@@H](CCCCN)C(=O)N[C@@H](CC(C)C)C(=O)N[C@@H](Cc4c[nH]c5ccccc45)C(=O)O)NC(=O)[C@H](Cc4c[nH]c5ccccc45)NC(=O)[C@H](C4CCCCC4)NC(=O)[C@H](CCCCN)NC(=O)[C@H](CSSC[C@H](NC(=O)[C@@H]4CCCN4C(=O)[C@H](CCC(=O)O)NC(=O)[C@H](CC(F)(F)F)NC(=O)[C@H](Cc4ccc(Cl)cc4)NC(=O)[C@H](CCCCN)NC(=O)[C@H](CCC(N)=O)NC1=O)C(=O)N[C@@H](CC(=O)O)C(=O)N[C@@H](CO)C(=O)N[C@@H](CCC(=O)O)C(=O)N[C@@H](CCCNC(=N)N)C(=O)N[C@@H](CCCCN)C(=O)N3)NC(=O)[C@H](CCC(=O)O)NC(=O)[C@H](CC(C)C)NC(=O)CNC(=O)[C@H](CCC(=O)O)NC2=O (Ac-CQK[Phe(4-Cl)][Abu(4,4,4-F3)]EPCDSERKCCEGLECK[Chg]WCKKKLW-OH; disulfide 1-15, 8-20, 14-24) | 0.091 µM | > 17 µM | 11.1 µM | 30 µM
8 | CC(=O)N[C@H]1CSSC[C@@H]2NC(=O)[C@@H]3CSSC[C@@H](C(=O)N[C@@H](CCCCN)C(=O)N[C@@H](CCCCN)C(=O)N[C@@H](CCCCN)C(=O)N[C@@H](CC(C)C)C(=O)N[C@@H](Cc4c[nH]c5ccccc45)C(N)=O)NC(=O)[C@H](Cc4c[nH]c5ccccc45)NC(=O)[C@H](C4CCCCC4)NC(=O)[C@H](CCCCN)NC(=O)[C@H](CSSC[C@H](NC(=O)[C@@H]4CCCN4C(=O)[C@H](CCC(=O)O)NC(=O)[C@H](CC(F)(F)F)NC(=O)[C@H](Cc4ccccc4)NC(=O)[C@H](CCCCN)NC(=O)[C@H](CCC(N)=O)NC1=O)C(=O)N[C@@H](CC(=O)O)C(=O)N[C@@H](CO)C(=O)N[C@@H](CCC(=O)O)C(=O)N[C@@H](CCCNC(=N)N)C(=O)N[C@@H](CCCCN)C(=O)N3)NC(=O)[C@H](CCC(=O)O)NC(=O)[C@H](CC(C)C)NC(=O)CNC(=O)[C@H](CCC(=O)O)NC2=O (Ac-CQKF[Abu(4,4,4-F3)]EPCDSERKCCEGLECK[Chg]WCKKKLW-NH2; disulfide 1-15, 8-20, 14-24) | 0.084 µM | > 17 µM | > 17 µM | 30 µM
9 | CC(=O)N[C@H]1CSSC[C@@H]2NC(=O)[C@@H]3CSSC[C@@H](C(=O)N[C@@H](CCCCN)C(=O)N[C@@H](CCCCN)C(=O)N[C@@H](CCCCN)C(=O)N[C@@H](CC(C)C)C(=O)N[C@@H](Cc4c[nH]c5ccccc45)C(N)=O)NC(=O)[C@H](Cc4c[nH]c5ccccc45)NC(=O)[C@H](CC4CCCCC4)NC(=O)[C@H](CCCCN)NC(=O)[C@H](CSSC[C@H](NC(=O)[C@@H]4CCCN4C(=O)[C@H](CCC(=O)O)NC(=O)[C@H](CC(F)(F)F)NC(=O)[C@H](CC4CCCCC4)NC(=O)[C@H](CCCCN)NC(=O)[C@H](CCC(N)=O)NC1=O)C(=O)N[C@@H](CC(=O)O)C(=O)N[C@@H](CO)C(=O)N[C@@H](CCC(=O)O)C(=O)N[C@@H](CCCNC(=N)N)C(=O)N[C@@H](CCCCN)C(=O)N3)NC(=O)[C@H](CCC(=O)O)NC(=O)[C@H](CC(C)C)NC(=O)CNC(=O)[C@H](CCC(=O)O)NC2=O (Ac-CQK[Cha][Abu(4,4,4-F3)]EPCDSERKCCEGLECK[Cha]WCKKKLW-NH2; disulfide 1-15, 8-20, 14-24) | 0.076 µM | > 17 µM | > 17 µM | 33 µM
